US20250275943A1, “COMPOSITION FOR CANCER DIAGNOSIS TARGETING TUMOR AND/OR TUMOR MICROENVIRONMENT AND USE THEREOF” (Korea University Research and Business Foundation, priority 2024, published 2025)
Like-named read-outs stand apart in the source and are kept apart here.

Key:
[1] = mouse, in vivo
Excerpt: (§1) Each graph represents the fluorescence signal of each organ.

[2] = system: A549 cancer cells, which do not express folate receptors, and H522 cancer cells, which express folate receptors; test: Fluorescent contrast observation of cancer cells with and without folate receptor expression; format: cell-based; details: A549 (no folate receptors) vs H522 (folate receptors); FIG. 5A, 5B
Excerpt: Accordingly, it was identified that FMK-2 had no cytotoxicity.

[3] = Mouse tissue staining experiment, fluorescence of extracted organs; details: normal mouse, organs extracted 4 hours after injection; FIG. 9
Excerpt: as §1

With CC1(C)C(/C=C/C2=C(Cl)C(=C/C=C3/N(CCC(=O)NC4O[C@@H](CO)[C@H](O)[C@@H](O)[C@H]4O)c4ccc(S(=O)(=O)O)cc4C3(C)C)/CCC2)=[N+](CCC(=O)NC2O[C@H](CO)[C@@H](O)[C@H](O)[C@@H]2O)c2ccc(S(=O)(=O)O)cc21 (stereo partly drawn) [Compound 2, 2-((E)-2-((E)-2-chloro-3-(2-((E)-3,3-dimethyl-1-(3-oxo-3-(((3R,4R,5R,6S)-3,4,5-trihydroxy-6-(hydroxymethyl)tetrahydro-2H-pyran-2-yl)amino)propyl)-5-sulfoindolin-2-ylidene)ethylidene)cyclohex-1-en-1-yl)vinyl)-3,3-dimethyl-1-(3-oxo-3-(((3S,4S,5S,6R)-3,4,5-trihydroxy-6-(hydroxymethyl)tetrahydro-2H-pyran-2-yl)amino)propyl)-5-sulfo-3H-indol-1-ium] the “fluorescence signal of each organ” value [1] was “overall signals were identified in all organs” and the “fluorescence expression in cancer cells depending on folate receptor expression” value [2] was “expressed fluorescence in cancer cells regardless of whether folate receptors were expressed”.

In the case of CC1(C)C(/C=C/C2=C(SCCOCCOCCNC(=O)CCC(NC(=O)c3ccc(NCc4cnc5nc(N)nc(O)c5n4)cc3)C(=O)O)C(=C/C=C3/N(CCC(=O)O)c4ccc(S(=O)(=O)O)cc4C3(C)C)/CCC2)=[N+](CCC(=O)O)c2ccc(S(=O)(=O)[O-])cc21 (stereo not shown) [Compound 4, 2-((E)-2-((E)-2-((1-(4-(((2-amino-4-oxo-1,4-dihydropteridin-7-yl)methyl)amino)phenyl)-3-carboxy-1,6-dioxo-10,13-dioxa-2,7-diazapentadecan-15-yl)thio)-3-(2-((E)-1-(2-carboxyethyl)-3,3-dimethyl-5-sulfoindolin-2-ylidene)ethylidene)cyclohex-1-en-1-yl)vinyl)-1-(2-carboxyethyl)-3,3-dimethyl-5-sulfo-3H-indol-1-ium], the “fluorescence signal of each organ” value [3] is reported as “signals were identified in the kidneys and small intestine”.

With CC1(C)C(/C=C/C2=C(Cl)C(=C/C=C3/N(CCC(=O)O)c4ccc(S(=O)(=O)O)cc4C3(C)C)/CCC2)=[N+](CCC(=O)O)c2ccc(S(=O)(=O)[O-])cc21 [Compound 1, 3-(2-((E)-2-((E)-3-(2-((E)-1-(2-carboxyethyl)-3,3-dimethyl-5-sulfoindolin-2-ylidene)ethylidene)-2-chlorocyclohex-1-en-1-yl)vinyl)-3,3-dimethyl-5-sulfo-3H-indol-1-ium-1-yl)propanoate] the “fluorescence signal of each organ” value [3] was “signals were higher in the liver and kidneys compared to other organs”.
